Reference: patent US10179767B2 (GENENTECH, INC., priority 2015, dated 2019)

Target: T1, hNav1.7 (Homo sapiens, UniProt Q15858)
T1 construct: expressed in transfected cells
Test: Tritiated sulfonamide binding to membranes from cells expressing hNav1.7 and the β1 subunit (Nav 1.7 ligand binding assay, competitive)
Conditions: competition with 100 pM [3H]compound, room temperature, 18 h
Method: Tritiated Sulfonamide Binding to Membranes Isolated from Cells that Heterologously Express hNav1.7 and the β1 Subunit
Preparation of membranes containing recombinantly expressed sodium channels: Frozen recombinant cell pellets were thawed on ice and diluted to 4 times the cell pellet weight with ice cold 50 mM Tris HCl, pH 7.4 buffer. The cell suspensions were homogenized on ice using a motorized glass dounce homogeniser. Homogenates were further diluted 8.4 times with ice cold 50 mM Tris HCl, pH 7.4 buffer and then centrifuged at 200×g at 4° C. for 15 min. The supernatants were collected and centrifuged at 10000×g at 4° C. for 50 min. The pellets were then re-suspended in 100 mM NaCl, 20 mM Tris HCl, pH 7.4 buffer containing 1% v/v protease inhibitors (Calbiochem) and re-homogenized on ice. The homogenized membranes were then processed through a syringe equipped with a 26 gauge needle. Protein concentrations were determined by Bradford Assay and the membranes were stored at −80° C.
Radioligand Binding Studies:
Saturation experiments. A competitive NaV1.7 inhibitor having a methyl group was tritiated. Three tritiums were incorporated in place of methyl hydrogens to generate [^3H]compound. Binding of this radioligand was preformed in 5 mL borosilicate glass test tubes at room temperature. Binding was initiated by adding membranes to increasing concentrations of [^3H]compound in 100 mM NaCl, 20 mM Tris HCl, pH 7.4 buffer containing 0.01% w/v bovine serum albumin (BSA) for 18 h. Non-specific binding was determined in the presence of 1 μM unlabelled compound. After 18 h, the reactants were filtered through GF/C glass fiber filters presoaked in 0.5% w/v polyethylene imine Filters were washed with 15 mL ice cold 100 mM NaCl, 20 mM Tris HCl, pH7.4 buffer containing 0.25% BSA to separate bound from free ligand. [^3H]compound bound to filters was quantified by liquid scintillation counting.
Competitive Binding Experiments:
Binding reactions were preformed in 96-well polypropylene plates at room temperature for 18 h. In 360 μL, membranes were incubated with 100 pM [^3H]compound and increasing concentrations of Test Compound. Non-specific binding was defined in the presence of 1 μM unlabelled compound. Reactions were transferred and filtered through 96-well glass fiber/C filter plates presoaked with 0.5% polyethylene imine. The filtered reactions were washed 5 times with 200 μL ice cold buffer containing 0.25% BSA. Bound radioactivity was determined by liquid scintillation counting. Data Analysis: For saturation experiments, non-specific binding was subtracted from total binding to provide specific binding and these values were recalculated in terms of pmol ligand bound per mg protein. Saturation curves were constructed and dissociation constants were calculated using the single site ligand binding model: Beq=(Bmax*X)/(X+Kd), where Beq is the amount of ligand bound at equilibrium, Bmax is the maximum receptor density, Kd is the dissociation constant for the ligand, and X is the free ligand concentration. For competition studies percent inhibition was determined and IC50 values were calculated using a 4 parameter logistic model (% inhibition=(A+((B−A)/(1+((x/C)⨣D)))) using XLfit, where A and B are the maximal and minimum inhibition respectively, C is the IC50 concentration and D is the (Hill) slope.

T1 sequence (Q15858 whole entry): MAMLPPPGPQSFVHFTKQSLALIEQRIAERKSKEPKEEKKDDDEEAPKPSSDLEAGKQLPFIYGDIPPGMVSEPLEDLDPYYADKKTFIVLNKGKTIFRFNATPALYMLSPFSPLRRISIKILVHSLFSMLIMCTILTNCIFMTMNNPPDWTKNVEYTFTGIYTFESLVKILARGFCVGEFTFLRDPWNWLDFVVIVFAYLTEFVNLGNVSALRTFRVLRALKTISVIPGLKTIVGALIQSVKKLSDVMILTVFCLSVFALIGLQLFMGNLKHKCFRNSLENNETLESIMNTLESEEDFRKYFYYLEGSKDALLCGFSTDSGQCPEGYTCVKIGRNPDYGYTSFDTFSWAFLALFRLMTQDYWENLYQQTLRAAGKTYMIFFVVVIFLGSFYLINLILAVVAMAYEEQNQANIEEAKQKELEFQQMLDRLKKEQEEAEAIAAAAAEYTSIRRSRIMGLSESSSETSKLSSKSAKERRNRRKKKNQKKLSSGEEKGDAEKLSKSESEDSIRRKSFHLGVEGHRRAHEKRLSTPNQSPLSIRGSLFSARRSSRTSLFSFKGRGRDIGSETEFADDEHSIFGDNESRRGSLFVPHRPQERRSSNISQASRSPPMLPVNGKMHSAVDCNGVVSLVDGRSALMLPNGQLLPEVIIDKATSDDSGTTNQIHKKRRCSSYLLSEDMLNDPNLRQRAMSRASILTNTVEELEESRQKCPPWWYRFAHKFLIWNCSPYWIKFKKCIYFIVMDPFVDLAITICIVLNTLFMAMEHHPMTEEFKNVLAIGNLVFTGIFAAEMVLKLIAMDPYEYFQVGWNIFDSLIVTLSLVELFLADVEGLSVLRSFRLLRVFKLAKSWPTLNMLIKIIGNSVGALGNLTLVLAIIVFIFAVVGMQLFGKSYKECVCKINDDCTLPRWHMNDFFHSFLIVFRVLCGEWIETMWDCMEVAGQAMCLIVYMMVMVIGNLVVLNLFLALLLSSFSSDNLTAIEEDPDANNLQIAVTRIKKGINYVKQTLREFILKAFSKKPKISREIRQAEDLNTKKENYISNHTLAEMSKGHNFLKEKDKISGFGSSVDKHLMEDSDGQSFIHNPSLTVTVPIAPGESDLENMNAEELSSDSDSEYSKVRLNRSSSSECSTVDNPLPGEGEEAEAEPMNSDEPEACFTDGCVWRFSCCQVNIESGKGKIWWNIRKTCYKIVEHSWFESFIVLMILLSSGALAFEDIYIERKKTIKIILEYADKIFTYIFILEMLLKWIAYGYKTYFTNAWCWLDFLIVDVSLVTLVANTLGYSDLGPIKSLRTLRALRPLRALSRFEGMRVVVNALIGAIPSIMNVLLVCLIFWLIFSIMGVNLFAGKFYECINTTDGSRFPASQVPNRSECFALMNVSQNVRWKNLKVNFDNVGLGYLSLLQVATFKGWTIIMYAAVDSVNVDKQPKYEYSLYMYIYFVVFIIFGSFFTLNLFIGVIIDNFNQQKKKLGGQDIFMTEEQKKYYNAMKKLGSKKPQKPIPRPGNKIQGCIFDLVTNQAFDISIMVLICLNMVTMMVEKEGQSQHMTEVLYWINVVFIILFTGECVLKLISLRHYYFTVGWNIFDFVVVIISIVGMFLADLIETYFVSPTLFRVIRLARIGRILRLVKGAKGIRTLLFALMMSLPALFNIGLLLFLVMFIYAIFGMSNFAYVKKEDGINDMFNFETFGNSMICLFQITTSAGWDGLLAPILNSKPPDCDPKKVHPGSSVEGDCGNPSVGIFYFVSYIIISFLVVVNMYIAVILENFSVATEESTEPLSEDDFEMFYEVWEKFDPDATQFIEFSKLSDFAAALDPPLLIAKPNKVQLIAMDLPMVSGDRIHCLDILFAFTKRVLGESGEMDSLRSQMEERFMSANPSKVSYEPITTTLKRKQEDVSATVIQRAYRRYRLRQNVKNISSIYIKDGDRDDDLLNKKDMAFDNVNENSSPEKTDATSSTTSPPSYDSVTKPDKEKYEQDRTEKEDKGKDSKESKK
T1 sequence (Q07699 19-218 partner): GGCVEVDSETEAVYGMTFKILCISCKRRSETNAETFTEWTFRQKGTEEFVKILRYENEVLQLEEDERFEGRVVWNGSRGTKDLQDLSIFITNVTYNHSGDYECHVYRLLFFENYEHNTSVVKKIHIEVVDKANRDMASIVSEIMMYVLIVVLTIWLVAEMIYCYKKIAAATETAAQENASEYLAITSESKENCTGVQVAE

Row | Compound | IC50 [nM]
1 | C[C@H](c1cc(Cl)cc(Cl)c1C#N)N1CCC(COc2cc(F)c(C(=O)NS(C)(=O)=O)cc2C2CC2)CC1 (single isomer, unassigned) [Example 1] | 8.8
2 | C[C@@H](c1cc(Cl)cc(Cl)c1C#N)N1CCC(COc2cc(F)c(C(=O)NS(C)(=O)=O)cc2C2CC2)CC1 (single isomer, unassigned) [Example 2] | 5.5
3 | COC1(COc2cc(F)c(C(=O)NS(C)(=O)=O)cc2C2CC2)CCN([C@@H](C)c2cc(Cl)cc(Cl)c2)CC1 (single isomer, unassigned) [Example 5] | 9.2
4 | C[C@H](c1cc(C(F)(F)F)cc(Cl)c1F)N1CCC(C#N)(COc2cc(F)c(C(=O)NS(C)(=O)=O)cc2C2CC2)CC1 (single isomer, unassigned) [Example 8] | 9.8
5 | CC(C)(C#N)[C@H](c1cc(Cl)cc(Cl)c1)N1CCC(COc2cc(F)c(C(=O)NS(C)(=O)=O)cc2C2CC2)CC1 (single isomer, unassigned) [Example 11] | 4.2
6 | CC(C)(C#N)[C@@H](c1cc(Cl)cc(Cl)c1)N1CCC(COc2cc(F)c(C(=O)NS(C)(=O)=O)cc2C2CC2)CC1 (single isomer, unassigned) [Example 12] | 3.9
7 | COc1c(Cl)cc(Cl)cc1[C@@H](C)N1CCC(COc2cc(F)c(C(=O)NS(C)(=O)=O)cc2C2CC2)CC1 (single isomer, unassigned) [Example 15] | 5.1
8 | COc1c(Cl)cc(Cl)cc1[C@H](C)N1CCC(COc2cc(F)c(C(=O)NS(C)(=O)=O)cc2C2CC2)CC1 (single isomer, unassigned) [Example 16] | 5.7
9 | C[C@@H](c1ccc(F)cc1Cl)N1CCC(F)(COc2cc(F)c(C(=O)NS(C)(=O)=O)cc2C2CC2)CC1 (single isomer, unassigned) [Example 18] | 10
10 | C[C@H](c1ccc(F)cc1Cl)N1CCC(F)(COc2cc(F)c(C(=O)NS(C)(=O)=O)cc2C2CC2)CC1 (single isomer, unassigned) [Example 19] | 6
11 | CS(=O)(=O)NC(=O)c1cc(C2CC2)c(OCC2CCN(Cc3cc(C(F)(F)F)cc(Cl)c3C#N)CC2)cc1F [Example 3, 4-((1-(3-chloro-2-cyano-5-(trifluoromethyl)benzyl)piperidin-4-yl)methoxy)-5-cyclopropyl-2-fluoro-N-(methylsulfonyl)benzamide] | 4.5
12 | CS(=O)(=O)NC(=O)c1cc(C2CC2)c(OCC2CCN(Cc3cc(Cl)cc(C(F)(F)F)c3C#N)CC2)cc1F [Example 4, 4-((1-(5-Chloro-2-cyano-3-(trifluoromethyl)benzyl)piperidin-4-yl)methoxy)-5-cyclopropyl-2-fluoro-N-(methylsulfonyl)benzamide] | 6.6
13 | CS(=O)(=O)NC(=O)c1cc(C2CC2)c(OCC2(O)CCN(Cc3cc(Cl)cc(Cl)c3)CC2)cc1F [Example 6, 5-Cyclopropyl-4-((1-(3,5-dichlorobenzyl)-4-hydroxypiperidin-4-yl)methoxy)-2-fluoro-N-(methylsulfonyl)benzamide] | 10
14 | COC1(COc2cc(F)c(C(=O)NS(C)(=O)=O)cc2C2CC2)CCN(Cc2cc(C(F)(F)F)cc(Cl)c2F)CC1 [Example 7, 4-((1-(3-Chloro-2-fluoro-5-(trifluoromethyl)benzyl)-4-methoxypiperidin-4-yl)methoxy)-5-cyclopropyl-2-fluoro-N-(methylsulfonyl)benzamide] | 7.9
15 | COC1(COc2cc(F)c(C(=O)NS(=O)(=O)C3CC3)cc2C2CC2)CCN(Cc2cc(Cl)cc(Cl)c2)CC1 [Example 9, 5-Cyclopropyl-N-(cyclopropylsulfonyl)-4-((1-(3,5-dichlorobenzyl)-4-methoxypiperidin-4-yl)methoxy)-2-fluorobenzamide] | 5.7
16 | CCS(=O)(=O)NC(=O)c1cc(C2CC2)c(OCC2(OC)CCN(Cc3cc(Cl)cc(Cl)c3)CC2)cc1F [Example 10, 5-Cyclopropyl-4-((1-(3,5-dichlorobenzyl)-4-methoxypiperidin-4-yl)methoxy)-N-(ethylsulfonyl)-2-fluorobenzamide] | 9
17 | CCS(=O)(=O)NC(=O)c1cc(C2CC2)c(OCC2CCN(Cc3cc(Cl)cc(Cl)c3OC)CC2)cc1F [Example 13, 5-Cyclopropyl-4-((1-(3,5-dichloro-2-methoxybenzyl)piperidin-4-yl)methoxy)-N-(ethylsulfonyl)-2-fluorobenzamide] | 4.1
18 | COc1c(Cl)cc(Cl)cc1CN1CCC(COc2cc(F)c(C(=O)NS(C)(=O)=O)cc2C2CC2)CC1 [Example 14, 5-Cyclopropyl-4-((1-(3,5-dichloro-2-methoxybenzyl)piperidin-4-yl)methoxy)-2-fluoro-N-(methylsulfonyl)benzamide] | 6.5
19 | N#Cc1c(Cl)cc(Cl)cc1CN1CCC(COc2cc(F)c(C(=O)NS(=O)(=O)C3CC3)cc2C2CC2)CC1 [Example 17, 5-Cyclopropyl-N-(cyclopropylsulfonyl)-4-((1-(3,5-dichloro-2-cyanobenzyl)piperidin-4-yl)methoxy)-2-fluorobenzamide] | 5.9

More lines, now with the values ahead:

Row | IC50 [nM] | Compound
20 | 83 | CS(=O)(=O)NC(=O)c1cc(C2CC2)c(O[C@H]2CN(Cc3ccc(F)cc3Cl)CC[C@@H]2F)cc1F (relative stereo) [Example 45, trans 4-((1-(2-chloro-4-fluorobenzyl)-4-fluoropiperidin-3-yl)oxy)-5-cyclopropyl-2-fluoro-N-(methylsulfonyl)benzamide]
21 | 5.6 | C[C@@H](c1ccc(Cl)c(Cl)c1)N1CCC(F)(COc2cc(F)c(C(=O)NS(C)(=O)=O)cc2C2CC2)CC1 (single isomer, unassigned) [Example 22]
22 | 6.4 | C[C@H](c1ccc(Cl)c(Cl)c1)N1CCC(F)(COc2cc(F)c(C(=O)NS(C)(=O)=O)cc2C2CC2)CC1 (single isomer, unassigned) [Example 23]
23 | 4.1 | C[C@@H](c1cc(F)cc(Cl)c1)N1CCC(F)(COc2cc(F)c(C(=O)NS(C)(=O)=O)cc2C2CC2)CC1 (single isomer, unassigned) [Example 24]
24 | 2 | C[C@H](c1cc(F)cc(Cl)c1)N1CCC(F)(COc2cc(F)c(C(=O)NS(C)(=O)=O)cc2C2CC2)CC1 (single isomer, unassigned) [Example 25]
25 | 4.7 | C[C@@H](c1ccc(F)c(Cl)c1)N1CCC(F)(COc2cc(F)c(C(=O)NS(C)(=O)=O)cc2C2CC2)CC1 (single isomer, unassigned) [Example 26]
26 | 8.6 | C[C@H](c1ccc(F)c(Cl)c1)N1CCC(F)(COc2cc(F)c(C(=O)NS(C)(=O)=O)cc2C2CC2)CC1 (single isomer, unassigned) [Example 27]
27 | 5.1 | CCS(=O)(=O)NC(=O)c1cc(C2CC2)c(OCC2CCN([C@@H](C)c3cc(Cl)cc(Cl)c3F)CC2)cc1F (single isomer, unassigned) [Example 32]
28 | 2.4 | CCS(=O)(=O)NC(=O)c1cc(C2CC2)c(OCC2CCN([C@H](C)c3cc(Cl)cc(Cl)c3F)CC2)cc1F (single isomer, unassigned) [Example 33]
29 | 9.9 | CS(=O)(=O)NC(=O)c1cc(C2CC2)c(OCC2CCN([C@H](c3cc(Cl)cc(Cl)c3)C3COC3)CC2)cc1F (single isomer, unassigned) [Example 34]
30 | 8.2 | CS(=O)(=O)NC(=O)c1cc(C2CC2)c(OCC2CCN([C@@H](c3cc(Cl)cc(Cl)c3)C3COC3)CC2)cc1F (single isomer, unassigned) [Example 35]
31 | 6 | C[C@@H](c1ccc(F)c(Cl)c1)N1CCC(COc2cc(F)c(C(=O)NS(C)(=O)=O)cc2C2CC2)CC1 (single isomer, unassigned) [Example 36]
32 | 3 | C[C@H](c1cc(Cl)c(F)c(Cl)c1)N1CCC(COc2cc(F)c(C(=O)NS(C)(=O)=O)cc2C2CC2)CC1 (single isomer, unassigned) [Example 37]
33 | 3.1 | C[C@@H](c1cc(Cl)c(F)c(Cl)c1)N1CCC(COc2cc(F)c(C(=O)NS(C)(=O)=O)cc2C2CC2)CC1 (single isomer, unassigned) [Example 38]
34 | 4.6 | C[C@H](c1ccc(Cl)c(F)c1)N1CCC(COc2cc(F)c(C(=O)NS(C)(=O)=O)cc2C2CC2)CC1 (single isomer, unassigned) [Example 39]
35 | 6.6 | C[C@@H](c1ccc(Cl)c(F)c1)N1CCC(COc2cc(F)c(C(=O)NS(C)(=O)=O)cc2C2CC2)CC1 (single isomer, unassigned) [Example 40]
